Values after ≈ are worked out from the molar mass of the structure shown.
Experiments:
[1] = Cytotoxicity against BCA1 cells by SRB assay; type: functional; details: read-out: ED50 (the source's name)
Plasmodium falciparum = assay: Antimalarial activity against multidrug-resistant Plasmodium falciparum K1 by [3H]hypoxanthine uptake; type: functional, organism-based

Row | SMILES | EC50 [1] [µg/mL] | EC50 (Plasmodium falciparum; Plasmodium falciparum, K1, read-out: EC50) [µg/mL] | EC50 (Plasmodium falciparum) [×10⁻⁷ g/ml]
1 | C=C[C@H]1CC[C@H]2[C@@H]3CCc4cc(O[C@H]5O[C@H](C)[C@H](O)[C@H](O)[C@H]5O)ccc4[C@H]3CC[C@]12C | 10 (≈ 23.3 µM) | 1.5 (≈ 3.5 µM) | –
2 | CCN(CC)CCCC(C)Nc1ccnc2cc(Cl)ccc12.O=P(O)(O)O.O=P(O)(O)O (stereo not drawn) [CHLOROQUINE PHOSPHATE] | – | – | 1.6
